Data from patent publication US20230302014A1, “USES OF GLUCOCORTICOID RECEPTOR (GR) ANTAGONIST AND ANDROGEN RECEPTOR (AR) DEGRADER COMBINATIONS” (ORIC Pharmaceuticals, Inc., priority 2020, published 2023).

Columns and labels:
GR protein = experiment: Western blot of GR protein after dose-dependent or time-dependent AR degrader treatment; assay type: cell-based, Human; settings: LNCaP and CWR22PC cells, 3 days, increasing doses 3-1000 nM
Procedure: LNCaP and CWR22PC cells were plated in seven 15-cm dishes (Corning#353025) at a density of 5 million cells per dish in RPMI-1640 media supplemented with 10% charcoal-stripped serum (CSS; OmegaScientific#FB4). After 24 hours, the cells were treated with 0, 3, 10, 30, 100, 300 and 1000 nM of ARD1 or ARD2 and incubated at 37° C. for 3 days. The cells were then trypsinized (Corning#25-053-CI) and harvested for transcript (RT-qPCR) and protein (western blot) analysis.
5 million of LNCaP and CWR22PC cells per dish were plated in five 15-cm dishes in 20 mL of RPMI-1640 media supplemented with 10% charcoal-stripped serum (CSS) and cultured at 37° C. for 24 hours. Cells were treated with 30 nM of dexamethasone and with 100 nM of ARD1 or ARD2 and maintained at 37° C. until harvest. On Day 0, 6, 10, 13, and 15, cells were trypsinized, cell pellets were washed with 1XPBS and then divided for mRNA and protein preparation.
Cell pellets were washed with PBS and lysed in RIPA buffer (VWR#AAJ63306-AK) supplemented with […] (VWR #AAJ65789-LQ). Resuspended cells were briefly sonicated for ~30 seconds using a probe sonicator and incubated on ice for 40 minutes, followed with centrifugation at 12,000 rpm for 15 minutes at 4° C. to collect the supernatant. Protein concentration was quantitated using Quick Start™ Bradford Protein Assay Kit (Bio-Rad #5000201). […]

PSA = PSA AlphaLISA assay of cell supernatant (PSA secretion); assay type: cell-based, Human; settings: CWR22PC; CSS media; 21 days; 0.1 nM R1881 + 1 µM ARV-110, + 30 nM dexamethasone, + 0.5 µM compound 1

Question: Which results are given for N#Cc1ccc(O[C@H]2CC[C@H](NC(=O)c3ccc(N4CCC(CN5CCN(c6cc7c(cc6F)C(=O)N(C6CCC(=O)NC6=O)C7=O)CC5)CC4)nn3)CC2)cc1Cl (stereo partly drawn) [ARV-110, N-[trans-4-(3-chloro-4-cyanophenoxy)cyclohexyl]-6-[4-[[4-[2-(2,6-dioxo-3-piperidinyl)-6-fluoro-2,3-dihydro-1,3-dioxo-1H-isoindol-5-yl]-1-piperazinyl]methyl]-1-piperidinyl]-3-pyridazinecarboxamide]?
Answer: GR protein levels (GR protein): minimally impacting; R1881-induced PSA secretion (PSA): blunts
